# According to patent US7129250B2, “Neuroprotective and anti-proliferative compounds” (Aegera Therapeutics Inc., priority 2000, dated 2006):
# pIC50: −log10 of the molar value. Where “and” joins values, the source holds several entries; their conditions need not be identical. Equal entries are not always repeated.
# What was measured:
# SHSY-5Y cells = assay: Etoposide Killing of SHSY-5Y; type: cell-based; conditions: etoposide 32 uM, drug 1 μM
# Method: SHSY-5Y cells were grown in growth media. Cells are placed at 50,000 cells per 96 well. Four days latter the cells were treated with drug for 48 hours prior to etoposide (32 uM) treatment. On day 6 media was changed to that containing etoposide and drug for 4 hours, at which point the media was changed to media containing drug only. Cells are allowed to survive overnight and then assessed for viability with metabolic activity measured (WST-1-Beohringer Mannheime), as shown in TABLE 13.
# CGNs [1] = assay: Glutamate Killing of CGNs; type: cell-based, CD1 mice; conditions: glutamate 100 uM
# Text: Glutaminergic neurons secrete the neurotransmitter glutamate as a part of normal cell signaling processes. Intracellular glutamate levels are regulated by glial cell uptake and conversion to glutamine. Under conditions of oxidative stress, as observed in various neurodegenerative diseases such as stroke, ALS, PD, and HD, glutaminergic neurons release massive amounts of glutamate into the […] fluid, overwhelming the surrounding cells. Stimulation of both NMDA and non NMDA-type glutamate excitory receptors leads to sustained depolarization of postsynaptic dendrosomal membranes, increased membrane permeability, and impaired ion homeostasis, all leading to either apoptotic or necrotic cell death.
# CGNs were harvested from day 8/9 post-natal CD1 mice, plated on Poly-D-Lycine coated plates and incubated for 6 days at 37° C. under 5% CO2. Cells were pretreated with drug 24 hours prior to glutamate (100 uM) and drug addition.
# Cortical neurons = assay: Cisplatin Killing of Cortical Neurons; type: cell-based, Sprague-Dawley rats; conditions: for % Protection at 10 μM: drug 10 μM 24 h pre-treatment
# Method: Cortical neurons were harvested from day E18 female Sprague-Dawley rats, plated on Poly-L-Lycine coated plates and incubated for 14 days at 37° C. under 5% CO2. […]
# CGNs [2] = assay: β-Amyloid Aggregation Assay in CGNs; type: cell-based; conditions: for pIC50: Aβ 25 μM, assayed 5 days after Aβ addition
# Text: Various mechanisms have been put forward in order to account for the neurotoxicity related to extracellular Aβ fibril formation. […] Regardless of the mode of action, extracellular Aβ fibril formation acts as an effective apoptotic trigger for neuronal cells and serves as an in vitro model for various neurodegenerative diseases characterized by extracellular protein fibril formation, typified by diseases such as AD and PD.
# CGNs were harvested from day 8/9 post-natal CD1 mice, plated on Poly-D-Lycine coated plates and incubated for 6 days at 37° C. under 5% CO2. Pretreated cells were treated with drug 24 hours prior to A-β (25 μM) and drug addition.
# CGNs [3] = assay: High/Low Potassium (HK/LK) assay in CGNs; type: cell-based; conditions: for pIC50: Mus musculus, HK/LK switch, drug 24 h pre-treatment, assayed 16 h after media change, concentration at which cell death was inhibited by 50%
# Method: Cultured CGNs which are maintained in a medium containing 26 mM potassium (high K^+ or HK) undergo cell death when the medium is changed to one containing 5 mM potassium (low K^+ or LK). HK maintains the cells in a highly polarized state, duplicating that of fully innervated neurons. The switch to LK (5 mM is more representative of physiological conditions) results in depolarization of the cells, mimicking the loss of neuronal conductivity. […] As these killer genes are turned on by various types of neuronal insult as observed in AD, PD, and stroke, HK/LK is a general in vitro model for neuronal degradation, blanketing a wide range of neurodegenerative diseases. Compounds that protect against HK/LK in CGNs would therefore be efficacious in treatment and/or prevention of various neurodegenerative disease states.
# CGNs were harvested from day 8/9 post-natal CD1 mice, plated on Poly-D-Lycine coated plates and incubated for 6 days at 37° C., with […] potassium, under 5% CO2. Pretreated cells were treated with drug 24 hours prior to changing the media to one containing […] potassium and drug. Cells were assayed 16 hours after the final media change using cell TITER96 (Promega).
# CGNs [4] = assay: Ceramide Killing of CGNs; type: cell-based, CD1 mice; conditions: ceramide 100 uM
# Text: Ceramide is a native […] found in most mammalian and human cells. The upregulation of endogenous ceramide has been linked to caspase 1 (ICE) induced apoptosis (Suzuki, A. et al. Exp. Cel. Res., 1997, 233, 41). In a similar fashion, the addition of ceramide to cultured CGNs results in caspase induced apoptosis, and is therefore considered an effective in vitro model for the various neurodegenerative diseases described above, which are characterized by caspase induced apoptosis, as observed in stroke models. Addition of selected compounds of the formula I through III, 24 hours prior to the addition of ceramide, to cultured CGNs provided protection against apoptosis, with 10 to 20% of the cells being saved at 1–10 μM drug concentrations (see Example 114).
# CGNs were harvested from day 8/9 post-natal CD1 mice, plated on Poly-D-Lycine coated plates and incubated for 6 days at 37° C. under 5% CO2. Cells were pretreated with drug 24 hours prior to ceramide (100 uM) and drug addition.
# CGNs [5] = assay: Cisplatin Killing of CGNs; type: cell-based, CD1 mice; conditions: for survival: 300 nM drug, cisplatin
# Method: Cisplatin has been used extensively in the treatment of various cancers. One dosblimiting side effect of this chemotherapeutic agent is related to hearing loss as a result of its toxicity to auditory neurons and loss of feeling in the extremities. Cisplatin induces apoptosis to both cultured CGN and cortical neurons.
# CGNs were harvested from day 8/9 post-natal CD1 mice, plated on Poly-D-Lycine coated plates and incubated for 6 days at 37° C. under 5% CO2. The cells were treated with media containing drug and cisplatin […].
# [6] = test system: OV 2008 ovarian cancer cells; assay: Cisplatin induced apoptosis of OV 2008 ovarian cancer cells; type: cell-based; conditions: cisplatin (20 μg/mL)
# Text: Regardless of its neuroprotective capability, if a compound interferes with chemotherapy by protecting cancer cells from an apoptotic stimuli then the compound is of less value as an anti-cancer therapeutic.
# Caspase 3 = Caspase 3 induction during HK/LK killing of CGNs; type: cell-based, CD1 mice
# Text: Caspase 3 induction ultimately leads to cell death and is observed in any number of neurodegenerative diseases. Compounds which inhibit caspase 3 induction represent potent therapies for various neurodegenerative diseases.
# SCG neurons = assay: NGF Withdrawal Killing of SCG Neurons; type: cell-based, Sprague-Dawley rats; conditions: Rattus norvegicus, Neuron, assayed 48 hours after drug
# Text: Cultured Superiour Cervical Ganglion (SCG) neurons of the PNS which have been sustained in media containing Neuron Growth Factor (NGF) undergo apoptotic cell death upon removal of the NGF from the cellular medium. Loss of neuronal trofin support has been implicated in various neurodegenerative disease states in the PNS, such as diabetic neuropathy and neuropahies related to chemotherapeutic and anti-HIV drug treatment.
# SCG neurons were harvested from day 1 post natal Sprague-Dawley rats, plated on collagen coated plates and incubated for 5 days in the presence of 50 ng/mL NGF at 37° C. under 5% CO2. The cells were washed with NGF free media, 4 times at 1 hour intervals, at which time drug was added.
# HIAP1 mRNA in LAN5 cells = assay: LAN5 HAIP1 Down Regulators (RNA levels); type: cell-based; conditions: HIAP1 RNA level vs control = 1.0; 24 hours drug
# Method: LAN5 cells were grown in growth media. Cells were plated at cells 50,000 per well in 96 cells per 96 wells. Five days latter drug was added and the cells were liced 24 hours latter using RLT buffer.
# [7] = test system: rat spinal cord ex-plants; assay: Spinal Cord Explant neurite extension; type: cell-based; conditions: 3 μM; ex-plants on growth inhibitory substrates
# Text: The inability of neurites to regenerate or overcome stimuli which inhibit or prevent the formation of normal neuritic extensions and connections is characteristic of the conditions found in spinal cord and related injuries, AD and the like. Select compounds of this invention promote the formation of neuritic extension in spinal cord ex-plants which have been cultured on growth inhibitory substrates.
# Spinal cords from P1 rat pups were isolated for neurite extension analysis. Lumbar cord was separated in two along the spinal canal. […] lateral sections were obtained with a McIlwain tissue chopper. Slices were cultured in poly L-lysine coated 24 well plates in Neurobasal media supplemented with B27, penicillin, streptomycin, and glutamate. Test compounds were added to the media and neurite extension out of the explant onto the poly L-coated plastic was assessed after 7 days in culture. Neurites were visualized either by phase contrast microscopy or by beta 3 tubulin immunofluorescence.
# [8] = Mus musculus, assayed 48 hours after final drug treatment
# [9] = cisplatin induced apoptosis in CGNs
# [10] = assayed 48 hours after final drug treatment
smiles,measurement,setting,value
"CCSCc1ccc2c(c1)c1c3c(c4c5cc(CSCC)ccc5n5c4c1n2[C@H]1C[C@](O)(C(=O)OC)[C@]5(C)O1)CNC3=O [CEP 1347, reference compound]",% SHSY-5Y cell survival,SHSY-5Y cells,12.5%
same,% CGN Survival,"CGNs [1]; 300 nM, (250 nM in source)",50.0 (250 nM) %
same,% CGN Survival,CGNs [1]; drug 100 nM,0%
same,% CGN Survival,CGNs [1]; drug 1 μM,7.0%
same,% Protection,"Cortical neurons; drug at 0.3 μM, cisplatin",32%
same,protection,CGNs [2]; concentrations below 300 nM,> 10%
same,pIC50,CGNs [3],6.00
same,toxicity,CGNs [3]; higher doses,toxic at higher doses
same,% CGN Survival,"CGNs [4]; 300 nM, (250 nM in source)",0 (250 nM) %
same,% CGN Survival,CGNs [4]; drug 1 μM,1.8%
O=C1NC(=O)C2=C1c1c([nH]c3ccccc13)C1Cc3ccccc3N21 (stereo not shown) [Compound 24],pIC50,CGNs [5]; [8],5.52
same,% CGN Survival,CGNs [1]; drug 100 nM,0%
same,% CGN Survival,CGNs [1]; drug 1 μM,17.0%
same,% CGN Survival,CGNs [1]; drug 10 μM,22.3%
same,pIC50,"CGNs [2]; Mus musculus, 120 h",5.00
same,pIC50,CGNs [3],5.00
same,% CGN Survival,CGNs [4]; drug 1 μM,11.4%
same,% CGN Survival,CGNs [4]; drug 10 μM,10.7%
O=C1NC(=O)C2=C1c1c([nH]c3ccc(OCc4ccccc4)cc13)C1Cc3ccccc3N21 (stereo not shown) [Compound 35],survival,CGNs [5],80%
same,pIC50,CGNs [5]; [9],7.00
same,% Protection at 10 μM,Cortical neurons,10% and 11%
O=C1NC(=O)C2=C1c1c(n(CCO)c3ccc(OCc4ccccc4)cc13)C1Cc3ccccc3N21 (stereo not shown) [Compound 36],survival,CGNs [5],80%
same,pIC50,CGNs [5]; [9],7.00
same,protection of cancer cells from cisplatin induced apoptosis,[6],did not protect
same,% Protection at 10 μM,Cortical neurons,9%
O=C1NC(=O)c2c1c1c3ccccc3[nH]c1c1cc3ccccc3n21 [Compound 42],pIC50,CGNs [5]; [8],5.52
same,inhibition at 10 µM,Caspase 3; Mus musculus,50%
same,pIC50,"CGNs [2]; Mus musculus, 120 h",6.00
same,pIC50,SCG neurons,4.70
same,pIC50,CGNs [3],5.52
same,% CGN Survival,CGNs [4]; drug 1 μM,20.0%
same,% CGN Survival,CGNs [4]; drug 10 μM,18.0%
COc1ccc2c(c1)c1c3c(n4c5ccccc5cc4c1n2C(=O)COC(C)=O)C(=O)NC3=O [Compound 51],pIC50,CGNs [5]; [8],6.00
same,% Protection at 10 μM,Cortical neurons,20% and 23%
O=C1NC(=O)c2c1c1c3cc(OCc4ccccc4)ccc3[nH]c1c1cc3ccccc3n21 [Compound 52],pIC50,CGNs [5]; [10],5.52
same,% Protection at 10 μM,Cortical neurons,50% and 40%
O=C1NC(=O)c2c1c1c3ccccc3[nH]c1c1nc3ccccc3n21 [Compound 53],% Protection at 10 μM,Cortical neurons,41%
"O=C1C=C(c2c[nH]c3ccc(OCc4ccccc4)cc23)C(=O)N1 [Compound 64, 3-(1-H-5-benzyloxyindol-3-yl)-1H-pyrrole-2,5-dione]",pIC50,CGNs [5]; [10],5.52
same,inhibition of caspase 3 induction,Caspase 3; 10 μM,33%
same,% CGN Survival,CGNs [1]; drug 100 nM,0%
same,% CGN Survival,CGNs [1]; drug 1 μM,4.0%
same,% CGN Survival,CGNs [1]; drug 10 μM,32.5%
same,pIC50,CGNs [2],6.00
same,% CGN Survival,CGNs [4]; drug 1 μM,18.0%
same,% CGN Survival,CGNs [4]; drug 10 μM,5.1%
"COc1ccc2c(c1)c(C1=CC(=O)NC1=O)cn2S(=O)(=O)c1ccc(C)cc1 [Compound 87, 3-(N-tosyl-5-methoxyindol-3-yl)-1H-pyrrole-2,5-dione]",% CGN Survival,CGNs [1]; drug 100 nM,0%
same,% CGN Survival,CGNs [1]; drug 1 μM,11.5%
same,pIC50,"CGNs [2]; Mus musculus, 120 h",5.00
same,Fold Induction,HIAP1 mRNA in LAN5 cells,0.37
same,% CGN Survival,CGNs [4]; drug 1 μM,0%
same,% CGN Survival,CGNs [4]; drug 10 μM,9.1%
O=C1NCC2=C1N1c3ccccc3CC1c1c2c2ccccc2n1CCCO (stereo not shown) [Compound 176],formation of neuritic extensions,[7],induce the formation of neuritic extensions
